Here are results for 3 molecules from patent US11034991B2, “Methods to determine KDM1A target engagement and chemoprobes useful therefor” (Oryzon Genomics S.A., priority 2016, dated 2021).

What is called IC50 is the concentration at which inhibition is half-maximal. What is called inhibition is the drop in the measured response relative to a control, in per cent.

SMILES strings stand for the structures. “Also recorded” adds a separate entry of the source. Where a name gives a salt, the structure may show the parent alone.

For series [1], the system named is KDM1A in brain. As to the kind of experiment: In vivo KDM1A target engagement, brain of SAMP8 mice. The method, then:
(§1) 8.1. Samples preparation and obtention of protein extracts from cells was performed as described in example 5. Frozen tissues were homogenized with a mortar and pestle chilled on dry ice. Powdered samples were resuspended in lysis buffer and forced through a 18 gauge blunt syringe needle to lyse the cells, proteins were then extracted as described above for cell pellets (example 5.2). Isolation of PBMCs from peripheral blood was also as described in example 5.2.
(§2) 8.2. Assay Protocol and Calculation of TE: same as Described in Example 7.1 and 7.2.
The methods of the invention have also been used to determine KDM1A target engagement in SAMP8 mice (a non-transgenic model for neurodegeneration reminiscent of Alzheimer's disease) which have been treated with the KDM1A inhibitor designated as Compound C. Compound C is the compound with chemical name (−)5-((((trans)-2-(4-(benzyloxy)phenyl)cyclopropyl)amino)methyl)-1,3,4-oxadiazol-2-amine, which is described in WO2012/013728. […] Female SAMP8 mice were treated with Compound C starting at 5 months of age and during 2 months. Mice were randomly distributed in three groups, receiving vehicle or Compound C at 0.11 mg/kg/day or 0.32 mg/kg/day, respectively. […] The dose was calculated according to the animal water consumption average per cage and adjusted weekly. […]

Series [2] has as its target KDM1A in PBMCs (Homo sapiens (Human), UniProt O60341). As to the kind of experiment: KDM1A target engagement in PBMCs of healthy volunteers (Phase I clinical study). It counts as in vivo. To be noted: single oral dose of 1.5 mg, 12 and 72 h post-administration, 6 volunteers. The method, then:
A Phase I clinical study has been performed to characterize the safety, tolerability, pharmacokinetics and pharmacodynamics of Compound C in healthy volunteers. The first stage of this clinical study is a randomized, double-blind, dose escalation study, in which the KDM1A inhibitor was administered as a single oral dose in capsules. Up to five different dose levels were tested in cohorts of 8 volunteers, randomized to receive either Compound C (n=6) or placebo (n=2). As part of the pharmacodynamic evaluations in this clinical study, KDM1A target engagement (TE) was assessed at pre-treatment, and 12 and 72 h after drug administration. Briefly, blood samples (10 mL) were collected in EDTA-K2 tubes from all the treated volunteers (active drug and placebo, n=8 per dose level) and PBMCs pellets obtained by density gradient centrifugation in Leucosep™ tubes and stored at −90° C. until analysis. Only PBMC samples meeting pre-established sample quality control criteria are used for the TE analysis. In particular, samples with signs of hemolysis and/or with traces of red cells are discarded.
KDM1A TE values obtained for each volunteer in the cohort of volunteers corresponding to the single dose of 1.5 mg of Compound C are shown in FIG. 11.

Series [3] has as its target human recombinant KDM1A enzyme (Homo sapiens (Human), UniProt O60341). The note with it: read-out: KDM1A IC50 (biochemical assay).
Procedure: The ability of the chemoprobes to inhibit KDM1A was tested in vitro using the assay described below.
KDM1A inhibition assay: a multistep enzymatic reaction in which the enzyme first produces H2O2 during the demethylation of lysine 4 in a 21 AA H3K4me2 N-terminal peptide. […] After 30 min of incubation at 37° C. Amplex Red reagent and the horseradish peroxidase (HRP) solution were added according to the recommendations of the supplier (Invitrogen) and left to incubate for 5 min at room temperature in the dark. Conversion of the Amplex Red reagent to resorufin, was monitored by fluorescence (λex=540 nm, λem=590 nm) using a microplate reader (Infinite F200 Tecan). Signals were corrected for background and the IC50 value was calculated with GraphPad Prism Software.
The target in series [4] is Human recombinant MAO-B (Homo sapiens (Human), UniProt P27338). Nature of the series: MAO inhibition (kynuramine fluorescence assay), MAO-B. The class given is biochemical. To be noted: kynuramine at KM, 1 h at 37° C. The method, then: (§3) The target selectivity of the chemoprobes for binding FAD in KDM1A relative to other FAD containing enzymes is evaluated by testing the chemoprobes in different biochemical assays to determine its MAO-A, MAO-B, IL4I1 and SMOX inhibitory activity in vitro. All IC50 values were calculated using Graph Prism Software.
(§4) Human recombinant MAO-A and MAO-B were purchased from Sigma Aldrich (#M7316 and #M7441 respectively). Enzymatic activities and inhibition rate were analyzed in a fluorescence based assay using kynuramine (Sigma Aldrich #K3250) as a substrate. Clorgiline and Deprenyl (Sigma Aldrich #M3778 and #M003) were used as controls for specific inhibition of MAO-A and MAO-B respectively. Compounds were pre-incubated with protein for 15 min on ice in 100 mM Hepes pH 7.5. The enzymatic reaction was initiated by the addition of specific KM Kynuramine and incubated 1 h at 37° C. The reaction was stopped by adding NaOH 2N (v/v). The conversion of kynuramine to 4-hydroxyquinoline was monitored by fluorescence (λex=320 nm, λem=360 nm) using a microplate reader.

For series [5], the target named is Human recombinant MAO-A (Homo sapiens (Human), UniProt P21397). As to the kind of experiment: MAO inhibition (kynuramine fluorescence assay), MAO-A. The class given is biochemical. The note with it: kynuramine at KM, 1 h at 37° C. The protocol:
as §3, §4

The target of series [6] is hIL-4I1 (Homo sapiens (Human), UniProt Q96RQ9). Nature of the series: IL-4I1 inhibition (phenylalanine oxidation, HRP/Amplex red). It counts as biochemical. The method, then:
as §3
Human recombinant IL-411 was purchased from RD Systems (#5684-A0-020). The biochemical activity was measured by its ability to oxidize phenylalanine and produce H2O2 in a horseradish-peroxidase coupled assay using Amplex red as substrate.

The target in series [7] is Mouse recombinant SMOX enzyme (Mus musculus (Mouse), UniProt Q99K82). Nature of the series: SMOX inhibition (spermine oxidation, HRP/Amplex red). The class given is biochemical. The note with it: KM spermine, 10 minutes; read-out: mSMOX IC50. The method, then:
as §3
Mouse recombinant SMOX enzyme was provided by Professor Paolo Mariottini (Rome University). The biochemical activity was measured by its ability to oxidize spermine in a horseradish peroxidase coupled assay using Amplex red as a substrate. The assay buffer for mSMOX reaction was 100 mM Sodium Phosphate pH 8.0. The inhibition by tested compounds was monitored during 10 minutes in the presence of KM spermine.

In series [8] the target is KDM1A in MV(4;11) cells (Homo sapiens (Human), UniProt O60341). To be noted: 24 h of treatment.
Procedure: Total protein extracts were quantified and 1 ug of total protein was used to perform the target engagement analysis as described above, using the luminescent substrate.
Series [9] addresses T1, KDM1A in rat PBMCs (Rattus norvegicus (Rat), UniProt A0A8I6G2K8). Nature of the series: Dynamics of KDM1A target engagement in rat pooled PBMCs. It counts as in vivo. The protocol: Obtention of proteins extracts, assay protocol and calculation of TE as described in example 8.1, 7.1 and 7.2 respectively.
PBMCs were obtained pre-dose (before starting the drug administration) and 2, 6, 24 h after the single dose administration, or pre-dose (i.e. 0 h) and 2, 6, 24, 48 and 72 h after the last drug administration in the multiple dose administration. Total and free KDM1A protein levels in PBMCs were assessed using 0.5 ug of total protein extracts. […] The KDM1A target engagement was calculated as described previously (see section 7.2)), where RX corresponds to each time-point analyzed and RREF is the sample corresponding to the pre-dose of rat PBMC.

Series [10] concerns the target KDM1A in rat lung (Rattus norvegicus (Rat), UniProt A0A8I6G2K8). Nature of the series: In vivo KDM1A target engagement, ex vivo rat lung. The note with it: pooled rat lung, oral gavage 4 consecutive days, 1, 3, 10 and 30 ug/kg/day. The protocol: as §1, §2
(§5) Four different doses were used (1, 3, 10 and 30 ug/kg/day). The KDM1A target engagement was calculated as described previously (see example 7), where RX corresponds to each condition analyzed and RREF is the sample corresponding to vehicle (non treated) rat PBMCs.

For series [11], the target named is T1, KDM1A in rat PBMCs. As to the kind of experiment: In vivo KDM1A target engagement, ex vivo rat PBMCs. The note with it: pooled rat PBMC, oral gavage 4 consecutive days, 1, 3, 10 and 30 ug/kg/day, two hours after last administration. The method, then:
Peripheral blood mononuclear cells (PBMCs) from rat were isolated from peripheral fresh blood collected in anticoagulant tubes for blood (K2- or K3-EDTA as the preferred anticoagulant tubes) and diluted with an equal volume of PBS, using Ficoll-Paque PLUS reagent (GE Healthcare; #17-1440-02) or Leucosep Tubes (Greiner bio-one; #227288) according to manufacturer's instructions. Cells were stained with tryptan blue and cell number and viability were determined using a Neubauer Chamber in an optical microscope. Pellets of 1·10^6 PBMCs were preserved at −80° C. The same procedure can be used for isolation of PBMCs from other resources such as human or mouse blood. In the case of human samples, preferably Leucosep procedure is used, whereas for mouse PBMCs, Ficoll procedure is preferred.
8.1. Samples preparation and obtention of protein extracts from cells was performed as described in example 5. Frozen tissues were homogenized with a mortar and pestle chilled on dry ice. […]
as §5

Series [12] deals with KDM1A from THP-1 cells (Homo sapiens (Human), UniProt O60341). The note with it: pretreatment with 25 nM; chemoprobe example 1.1.
Procedure: Tubes were incubated for 5 min on ice and briefly sonicated to achieve lysis. The resulting extracts were centrifuged 10 min at 14.000×g at 4° C. Supernatants were collected and quantified by Bradford assay (BIO-RAD; #500-0006) following manufacturer's instructions.
350 μg of protein extracts (containing the chemoprobe) was then added and incubated for 30 min at room temperature (RT) using gentle rotation. The chemoprobe-KDM1A complex bound to the streptavidin beads was separated using a magnet and washed 4 times in PBS. After the last wash, samples were resuspended in 25 μL of 3×SDS Sample Buffer and analyzed by western blot. Samples were separated on a 10% Bis-Tris NuPAGE® Novex® Precast gel (Invitrogen; #P0301BOX) following manufacturer's instructions. Gels were transferred onto nitrocellulose membrane (GE Healthcare; #RPN303D) for immunodetection by semi-dry transfer. N-specific binding sites were blocked by incubating membranes in blocking buffer (5% non-fat dry milk in PBS-Tween 0.1%) at RT for 1 h. […] Signal was detected by enhanced chemiluminescence (ECL, Amersham, GE Healthcare; #W9643350) using a GeneGnome HR System (Syngene).
Series [13] addresses KDM1A in LNCap cells (Homo sapiens (Human), UniProt O60341). Nature of the series: KDM1A target engagement in cells (chemoprobe luminescent ELISA), LNCap. It counts as cell-based. The note with it: LNCap cells treated for 24 h at 0.1, 1 and 10 nM. The method, then: Coating was performed at 4° C.
In general terms: ELISA stands for enzyme-linked immunosorbent assay.

Series [14] has as its target KDM1A in THP-1 cells (Homo sapiens (Human), UniProt O60341). As to the kind of experiment: KDM1A target engagement in cells (chemoprobe luminescent ELISA), THP-1. The note with it: THP-1 cells treated for 24 h, 0.25-25 nM.
In series [15] the target is KDM1A from MV(4;11) cells (Homo sapiens (Human), UniProt O60341). The note with it: MV(4;11) cells pre-treated with 25 nM; chemoprobes Examples 1.4 and 1.5.
For series [16], the target named is human rKDM1A (Homo sapiens (Human), UniProt O60341). Nature of the series: AlphaLISA detection of free KDM1A. To be noted: pretreatment of the enzyme at 5 uM; chemoprobe Example 1.6 100 nM. The class given is binding. The protocol:
The AlphaLISA assay detects the proximity of a first detection agent containing […] latex donor beads containing phthalocyanine that release singlet oxygen after irradiation at […] to a second detection agent containing similar sized acceptor beads containing Europium that emit a narrow peak of light at […] after absorption of singlet oxygen. The AlphaPlex assay allows detection of multiple analytes in the same assay volume and works similarly, but two acceptor beads are used (second and third detection agents) containing respectively Terbium or Samarium and emit light at 545 nM or 645 nM after absorption. Effective singlet oxygen transfer occurs when donor and acceptor beads are separated by a distance of less than 200 nm.
For example, anti-KDM1A antibody (mAb-844) was conjugated to AlphaLISA acceptor beads (Perkin Elmer #6772001) to generate a first detection agent, and anti-KDM1A antibody (mAb-825) was conjugated to AlphaLISA donor beads (Perkin Elmer #6762013) to generate a second detection agent that together form a detection system that can be used to determine total KDM1A levels. […]
(In general: Bead proximity is the source of the signal in Alpha formats.)

Sequence of hIL-4I1 (Q96RQ9 22-567): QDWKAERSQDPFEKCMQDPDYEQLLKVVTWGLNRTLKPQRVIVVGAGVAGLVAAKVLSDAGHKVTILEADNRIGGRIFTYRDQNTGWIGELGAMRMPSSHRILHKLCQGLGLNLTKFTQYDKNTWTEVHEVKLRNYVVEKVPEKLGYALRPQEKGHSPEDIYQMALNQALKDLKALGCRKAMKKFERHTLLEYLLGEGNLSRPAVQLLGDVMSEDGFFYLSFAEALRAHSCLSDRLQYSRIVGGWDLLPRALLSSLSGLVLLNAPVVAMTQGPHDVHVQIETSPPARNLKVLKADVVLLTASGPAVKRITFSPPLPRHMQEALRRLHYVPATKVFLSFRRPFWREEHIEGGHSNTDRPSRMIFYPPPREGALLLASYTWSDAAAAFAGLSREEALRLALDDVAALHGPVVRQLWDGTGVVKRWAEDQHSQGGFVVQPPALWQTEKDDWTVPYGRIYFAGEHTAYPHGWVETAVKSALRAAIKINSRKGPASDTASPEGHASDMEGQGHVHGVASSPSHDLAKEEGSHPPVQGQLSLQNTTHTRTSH
Sequence of Human recombinant MAO-A (P21397 whole entry): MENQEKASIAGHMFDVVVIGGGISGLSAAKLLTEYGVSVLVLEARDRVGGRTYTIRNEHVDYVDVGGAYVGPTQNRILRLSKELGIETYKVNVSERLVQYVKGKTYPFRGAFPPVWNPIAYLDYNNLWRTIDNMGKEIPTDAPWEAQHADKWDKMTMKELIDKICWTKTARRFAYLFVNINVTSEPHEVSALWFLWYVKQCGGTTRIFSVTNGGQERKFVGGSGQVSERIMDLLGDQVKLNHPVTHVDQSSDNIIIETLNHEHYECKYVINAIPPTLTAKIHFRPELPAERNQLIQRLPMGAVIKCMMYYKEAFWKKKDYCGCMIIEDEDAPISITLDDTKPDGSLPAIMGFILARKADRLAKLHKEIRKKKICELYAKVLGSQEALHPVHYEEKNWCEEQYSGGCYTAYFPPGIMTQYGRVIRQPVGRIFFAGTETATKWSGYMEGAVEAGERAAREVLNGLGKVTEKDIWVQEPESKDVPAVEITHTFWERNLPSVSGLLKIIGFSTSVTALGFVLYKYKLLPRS
Sequence of Mouse recombinant SMOX enzyme (Q99K82 whole entry): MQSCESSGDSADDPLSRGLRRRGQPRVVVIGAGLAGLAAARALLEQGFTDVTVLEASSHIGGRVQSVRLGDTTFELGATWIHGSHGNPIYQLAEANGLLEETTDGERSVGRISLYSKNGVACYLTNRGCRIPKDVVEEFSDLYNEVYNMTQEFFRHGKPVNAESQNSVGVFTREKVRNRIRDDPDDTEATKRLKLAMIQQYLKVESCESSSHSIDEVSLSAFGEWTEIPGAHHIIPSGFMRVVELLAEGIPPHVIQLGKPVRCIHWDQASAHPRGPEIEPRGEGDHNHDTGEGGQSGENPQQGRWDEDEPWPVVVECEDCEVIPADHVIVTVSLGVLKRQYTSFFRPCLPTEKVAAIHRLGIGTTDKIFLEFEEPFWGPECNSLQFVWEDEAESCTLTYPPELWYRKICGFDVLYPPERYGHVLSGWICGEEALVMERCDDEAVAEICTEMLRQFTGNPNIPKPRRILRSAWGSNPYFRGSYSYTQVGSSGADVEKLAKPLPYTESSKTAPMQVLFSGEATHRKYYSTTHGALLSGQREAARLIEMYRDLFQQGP
Sequence of Human recombinant MAO-B (P27338 whole entry): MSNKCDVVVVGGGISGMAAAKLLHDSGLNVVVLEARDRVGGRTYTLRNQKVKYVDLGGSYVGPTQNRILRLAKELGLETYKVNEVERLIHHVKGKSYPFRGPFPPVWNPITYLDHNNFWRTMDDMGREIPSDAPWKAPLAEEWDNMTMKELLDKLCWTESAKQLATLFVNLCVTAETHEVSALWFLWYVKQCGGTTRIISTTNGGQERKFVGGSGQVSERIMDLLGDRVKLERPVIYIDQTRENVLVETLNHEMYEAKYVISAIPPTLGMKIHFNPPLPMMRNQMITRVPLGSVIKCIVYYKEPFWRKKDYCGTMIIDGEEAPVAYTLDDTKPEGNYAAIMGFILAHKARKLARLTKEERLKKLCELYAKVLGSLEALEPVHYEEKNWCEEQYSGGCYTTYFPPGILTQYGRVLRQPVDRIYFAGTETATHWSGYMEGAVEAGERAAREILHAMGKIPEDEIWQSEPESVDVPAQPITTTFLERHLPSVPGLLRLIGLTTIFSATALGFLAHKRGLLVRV

For `Nc1nnc(CN[C@@H]2C[C@H]2c2ccc(OCc3ccccc3)cc2)o1` [Compound C, (−)5-((((trans)-2-(4-(benzyloxy)phenyl)cyclopropyl)amino)methyl)-1,3,4-oxadiazol-2-amine], the “mean % KDM1A target engagement” value in series [1] (brain of female SAMP8 mice, 0.11 or 0.32 mg/kg/day in drinking water, 2 months) is listed as “clear dose-response of KDM1A target engagement”. Further, the brain penetration result in series [1] (mouse, in vivo) is reported as “enters the brain; also recorded: cross the blood-brain barrier”. Besides, in [2], the “KDM1A TE” value is listed as “Clear KDM1A target engagement”. Further, the 50% inhibitory concentration (IC50) in [3] amounted to 0.101 µM.

Consider `N[C@H]1CC[C@H](N[C@@H]2C[C@H]2c2ccc(-c3cccc(CCC(=O)NCCOCCOCCOCCOCCOCCOCCOCCOCCOCCOCCOCCNC(=O)CCCC[C@@H]4SC[C@@H]5NC(=O)N[C@@H]54)c3)cc2)CC1` [Example 1.6, N-(39-(4′-((1S,2R)-2-(((trans)-4-aminocyclohexyl)amino)cyclopropyl)-[1,1′-biphenyl]-3-yl)-37-oxo-3,6,9,12,15,18,21,24,27,30,33-undecaoxa-36-azanonatriacontyl)-5-((3aS,4S,6aR)-2-oxohexahydro-1H-thieno[3,4-d]imidazol-4-yl)pentanamide dihydrochloride], for which the IC50 was greater than 100 µM in [4]; greater than 100 µM in [5]; greater than 100 µM in series [6] (KM phenylalanine, 30 minutes); 13 µM in [7]. In series [6] (at 100 uM), this molecule showed an inhibition at 100 µM of 31%.

In the case of `N[C@H]1CC[C@H](N[C@@H]2C[C@H]2c2ccccc2)CC1` [ORY-1001, (trans)-N1-((1R,2S)-2-phenylcyclopropyl)cyclohexane-1,4-diamine], the “% of KDM1A target engagement” value in series [8] is reported as “dose-responsive cellular target engagement”. Besides, the “target engagement after multiple administrations versus single administration” value in series [9] (at the same dose level) was “higher than single administration”. Further, the “percentage of KDM1A target engagement over time” value in series [9] (pooled rat PBMCs, p.o. 2.5 and 15 ug/kg/day, single dose or 5 consecutive days) is “clear time- and dose-response in KDM1A target engagement”. Moreover, in series [9] (up to 72 h after the last administration), the “percentage of KDM1A target engagement after the last dose in absence of further treatment” value is reported as “gradually decreases”. Further, the “KDM1A target engagement (in %)” value in [10] and in [11] was “clear dose-response of KDM1A target engagement” each time. Also, in series [12], the “effect of pretreatment on pull-down of KDM1A by chemoprobe” value is reported as “completely prevented pull-down of KDM1A”. The KDM1A target engagement result in [13] is “clear KDM1A target engagement”. For the same molecule, the “% of Target engagement” value in [14] is on record as “dose-responsive cellular target engagement”. For the same molecule, the “effect of pre-treatment on pull-down of KDM1A by chemoprobes” value in series [15] is on record as “completely prevented pull-down of KDM1A”. In series [16], the “free KDM1A signal (AlphaLISA)” value was “blocked”.
